Assay results as given in a melting point compilation (Tetko et al.; mined from patent text by program, amines drawn as free bases though some values may be those of a salt).

Structure (SMILES) | melting point
CCOC(=O)C1=C(C=NO)Nc2nccn2C1c1cccc([N+](=O)[O-])c1 (stereo not drawn) | 229 to 230 °C
N#CCN1CCC(Nc2nc3ccccc3n2Cc2ccc(CO)o2)CC1 | 210 °C
CCOC(=O)c1cccn2c(C=O)c(-c3ccccc3)nc12 | 139 °C
O=C(Nc1ccc2c(c1)OCCO2)c1ccc(-c2cccs2)cc1 | 192 to 195 °C
O=C(O)c1ccccc1Oc1ccccc1C1CCCCC1 | 109 to 123 °C
Cc1ccc(-c2cc(C(F)(F)F)nn2-c2ccc(S(=O)(=O)NO)cc2)cc1 | 203 °C
CCc1cc(=O)c2nc(OC)ccc2[nH]1 | 279 to 281 °C
Cc1ccc(S(=O)(=O)Nc2ccccc2C(=O)NCCc2ncc[nH]2)cc1 | 173 to 181 °C
Cc1c(C(=O)O)cccc1C(=O)c1ccc(Cl)cc1 | 205 °C
CCOC(=O)C1CCCC1NC(=O)C=C(C)OC (stereo not drawn) | 74 °C
CCCN(CCCCC12CC3CC(CC(C3)C1)C2)C(=O)NCCCc1ccncc1 | 110 °C
COc1ccc(CNc2ncnc3c2ncn3C2OC(CN=[N+]=[N-])C(O)C2O)cc1 (stereo not drawn) | 191 °C
COc1cc(OC)c2c(C)c(CCN3CCN(c4ccccc4)CC3)c(=O)oc2c1 | 112 to 114 °C
COc1ccc(C(Cc2ccncc2)c2ccc(C(N)=O)cc2)cc1OC1CCCC1 (stereo not drawn) | 180 to 182 °C
C=C(c1ccc(NC(=O)OC(C)(C)C)c(C)c1)C(F)(F)F | 86 to 88 °C
Cc1cccc(C(=O)NC(C)C)c1N(C(=O)c1cc(C(F)(F)F)[nH]n1)c1ncccc1Cl | 194 to 195 °C
Nc1nc2c(s1)CC(CCN1CC=C(c3ccccc3)CC1)CC2 (stereo not drawn) | 177 to 182 °C
CC(=O)c1ccc2c(c1)[C@@H](NC(=O)Nc1ccccc1)[C@H](O)C(C)(C)O2 (relative stereo) | 210 to 211 °C
Cn1c(=O)c2c(nc(/C=C/c3ccc4c(c3)OCO4)n2C)n(C)c1=O | > 300 °C
N#Cc1ccc(-c2ccc(OCCCCCCC(=O)NO)cc2)cc1 | 79 to 82 °C
COc1ccc2[nH]cc(CCN3CCC(c4ccc(C)cc4)CC3)c2c1 | 131 to 133 °C
Cc1ccc(CN2CCSC2=O)cc1 | 49 to 50 °C
COc1cc(CCl)c(CCl)cc1OCc1ccccc1 | 114 to 116 °C
COC(=O)CCC#Cc1cc(Cl)ccc1NS(=O)(=O)c1ccc2nc(N)sc2c1 | 175 °C
CCC(F)c1cc(N2CCNCC2)cc(-c2ccccc2C#N)c1Cl (stereo not drawn) | 159 °C

Structure (SMILES) | melting point
Nc1nc(Cl)cc(NCC2(CO)CC(=O)C2)n1 | 171 to 173 °C
COc1cccc(C)c1N(C(C)=O)C(C)=O | 116 to 119 °C
COc1ccc(C(OC(C)=O)c2cc(OCc3ccccc3)ccc2OC)nc1 (stereo not drawn) | 105 to 110 °C
COc1ccc(I)c(OCC(O)CNCCc2ccc(OC)c(OC)c2)c1 (stereo not drawn) | 83 to 88 °C
Cc1cc(Cl)ccc1N1CCCNC1=S | 266 to 268 °C
COc1ccc(CCN2C=CC=C3C2=Nc2cc(C)ccc2S(=O)(=O)N3C)cc1 | 128 °C
CCCCn1c(C(=O)c2cc(C)cc(C=CC#N)c2)c(C(C)C)c(=O)[nH]c1=O | 164 to 165 °C
CC(C)(Cc1c(C(=O)c2ccccc2)c2cc(OCc3ccc4ccccc4n3)ccc2n1Cc1ccc(Cl)cc1)C(=O)O | 165 to 166 °C
CNC(=S)N1CCc2nc(N)sc2C1 | 188 to 190 °C
NC(=O)c1c(Cl)c(-c2ccccc2)n2c1CN(C(=O)CCC1CCCC1)CC2 | 172 to 174 °C
CNC(=O)n1sc(OCc2ccc(Cl)cc2)nc1=O | 145 °C
CCCOc1cc(C)c2cc(Cn3ccnc3)ccc2n1 | 138 °C
c1ccc2c(c1)CCc1c(N3CCN(Cc4c[nH]c5ncccc45)CC3)n[nH]c1-2 | 245 to 247 °C
NCC1CN(c2c(F)cc3c(=O)c(C(=O)O)cn(C4CC4)c3c2F)C1 | 190 to 195 °C
O=C(CCc1cccc2[nH]ccc12)c1ccccc1OCC1CO1 (stereo not drawn) | 72 °C
OC[C@@H](O)[C@@H](c1cccc(Br)c1)N1CCc2cccc(OCc3ccccc3)c21 | 61 to 66 °C
CNC(=O)N(O)C(C)c1ccc(OC)cc1 (stereo not drawn) | 102 to 104 °C
FC(F)(F)Oc1ccc(C2CCC3(CC2)OCCO3)cc1 | 41.2 °C
CCc1noc(-c2ncc3[nH]c4cccc(OCc5ccccc5)c4c3c2COC)n1 | 180 to 184 °C
COc1ccc(-c2cc3ccc(C(=O)O)cc3o2)cc1C(C)(C)C | 235 °C
CN(Cc1ccc(COOC(=O)NC(Cc2ccccc2)C(=O)O)cc1)c1ccccc1 (stereo not drawn) | 69.6 to 70.1 °C
CCCCCCCCCCCCCCN(O)CCCCCCCCCCCCCC | 94 to 96 °C
Nc1cccc(Oc2ccc(Oc3cccc(N)c3)cc2)c1 | 98 to 99 °C
C=CCONC(=O)c1nc(-c2ccc(Cl)c(OC)c2F)nc(N)c1Cl | 159 to 161 °C
COc1ccc(N2c3ccccc3S(=O)(=O)c3ccccc32)cc1 | 265 to 266 °C

Structure (SMILES) | melting point
Cc1ccc2c(c1)c(=O)c1c(cnn1C)n2CCCNS(C)(=O)=O | 179 °C
Cc1c(NC(=O)NCCCO)c(C)c2c(c1-c1ccccc1)OCC2c1ccc(C(C)C)cc1 (stereo not drawn) | 145 to 146 °C
CCN(Cc1ccc2nc(C)[nH]c(=O)c2c1)C(N)=S | 186 to 187 °C
N#Cc1cc(-c2c(C(N)=O)ccn2-c2ccc(F)cc2)ccc1OCC(F)(F)F | 227 to 228 °C
CC(C)(C)c1cc(C(=S)OCc2ccccc2)cc(C(C)(C)C)c1O | 115 to 119 °C
CC(C)CC(S)C(=O)NC(C)(C)C(=O)NC(Cc1ccc(-c2cccs2)nc1)C(=O)O (stereo not drawn) | 194 to 196 °C
OC1C2=C(CCN1CCCCc1c[nH]c3ccccc13)c1ccccc1C2 (stereo not drawn) | 205 to 208 °C
O=C1CCCC(=O)N1C(Sc1nnn[nH]1)c1ccccc1 (stereo not drawn) | 84 to 85 °C
Cn1cc(C(=O)Nc2ccccc2-c2cccc(C#N)c2)c(C(F)(F)F)n1 | 76 to 78 °C
CC(C)(C)NCC(O)COc1cccc(C#N)c1 (stereo not drawn) | 108 to 110 °C
CC(C)C(=O)[C@H]1CCn2c(cc3ccccc32)C1 | 78 to 79 °C
CCCOc1cccc(C2(c3cccs3)N=C(N)N(C)C2=O)c1 (stereo not drawn) | 79 to 81 °C
CN1CCN(c2ccc(Nc3ncc4ccc(-c5cccc6c5OCCO6)n4n3)cc2)CC1 | 212 to 213 °C
COC(=O)c1cccc([N+](=O)[O-])c1I | 64 to 64.5 °C
CC(=O)n1c(=O)n(CCN2CCC(C(=O)c3ccc(F)cc3)CC2)c(=O)c2ccsc21 | 137 to 141 °C
Cc1nc(Cl)c(C)c(-c2c(C)c(N)c(C)c3nsnc23)n1 | 105 to 106 °C
CC(=O)N1CCc2ccc(SCc3ccccc3)c([N+](=O)[O-])c2C1 | 94 to 95 °C
SCc1cn(C(c2ccccc2)(c2ccccc2)c2ccccc2)nn1 | 140 to 141 °C
N=C(N)Nc1nc(C(=O)NCC(=O)NC(CC(=O)O)c2cccnc2)cs1 (racemic) | 186 °C
CCN(CC)C(=O)n1cnc(S(=O)(=O)Cl)n1 | 44 to 47 °C
CC1(C)SC2C(N)C(=O)N2C1NC(=O)OCC(Cl)(Cl)Cl (stereo not drawn) | 151 to 155 °C
CN1C2CCC1CC(c1n[nH]c3ccccc13)C2 (stereo not drawn) | 191 to 192 °C
Cn1c2ccc(C=O)cc2c2sc3ccccc3c21 | 188 to 190 °C
